Laboratory results from ChEMBL document CHEMBL6177976, “Important Role of Triphenylamine in Modulating the Antibacterial Performance Relationships of Antimicrobial Peptide Mimics by Alkyl Chain Engineering” (J Med Chem, 2025).
Active and inactive are the calls of the source. The rule behind the calls is not given here.

Columns and labels:
[1] = tested on: Escherichia coli; test: Antibacterial activity against Escherichia coli incubated for 90 mins; assay type: functional, organism-based
[2] = tested on: Staphylococcus aureus; test: Antibacterial activity against methicillin resistant Staphylococcus aureus assessed as bacterial viability up to 12 uM; assay type: functional, organism-based
[3] = tested on: Cell membrane; test: Induction of Inner membrane integrity in Staphylococcus aureus at 128 uM measured for 40 mins T12 dye based analysis; assay type: subcellular
[4] = tested on: Cell membrane; test: Induction of Inner membrane integrity in Staphylococcus aureus at 128 uM measured for 40 mins in presence of cardiolipin by T12 dye based analysis
[5] = tested on: Staphylococcus aureus; test: Antibacterial activity against Staphylococcus aureus incubated for 90 mins; assay type: functional, organism-based; details: dose 10.0 µM
[6] = tested on: Cell membrane; test: Induction of Inner membrane integrity in Staphylococcus aureus at 128 uM measured for 40 mins in presence of phosphatidylglycerol by T12 dye based analysis; assay type: subcellular
[7] = tested on: HeLa; test: Cytotoxicity against human HeLa cells at 32 uM incubated for 24 hrs by CCK-8 assay; assay type: functional, cell-based
[8] = tested on: Staphylococcus aureus; test: Antibacterial activity against methicillin resistant Staphylococcus aureus assessed as bacterial viability at 10 uM incubated for 90 mins relative to control; assay type: functional; details: 1.5 h
[9] = tested on: Cell membrane; test: Induction of cell membrane damage in Staphylococcus aureus assessed as increase in fluorescence intensity at 128 uM measured for 40 mins propidium iodide staining based analysis
[10] = tested on: Escherichia coli; test: Antibacterial activity against Escherichia coli assessed as effect on bacterial growth incubated for 90 mins; assay type: functional, organism-based
[11] = tested on: Cell membrane; test: Induction of cell membrane damage in Staphylococcus aureus assessed as decrease in fluorescence intensity at 128 uM measured for 40 mins propidium iodide staining based analysis; assay type: subcellular
[12] = tested on: Escherichia coli; test: Antibacterial activity against Escherichia coli assessed as change in surface zeta potential at 16 uM incubated for 20 mins; assay type: functional, organism-based
[13] = tested on: Staphylococcus aureus; test: Antibacterial activity against methicillin resistant Staphylococcus aureus assessed as bacterial viability at 4 uM incubated for 90 mins relative to control; assay type: functional; details: 1.5 h
[14] = tested on: Cell membrane; test: Induction of cell membrane damage in Staphylococcus aureus at 20 uM incubated for 60 mins by SEM analysis; assay type: subcellular
[15] = tested on: Cell membrane; test: Induction of Inner membrane integrity in Staphylococcus aureus measured for 40 mins in presence of phosphatidylglycerol by T12 dye based analysis; assay type: subcellular; details: dose 128.0 µM
[16] = tested on: Cell membrane; test: Induction of Inner membrane integrity in Staphylococcus aureus measured for 40 mins in presence of cardiolipin by T12 dye based analysis; assay type: subcellular; details: dose 128.0 µM
[17] = tested on: HeLa; test: Cytotoxicity against human HeLa cells at 32 uM incubated for 24 hrs by Calcein AM assay; assay type: functional, cell-based
[18] = tested on: HeLa; test: Cytotoxicity against human HeLa cells at 32 uM measured after 60 mins by Calcein AM assay; assay type: functional, cell-based
[19] = tested on: HeLa; test: Cytotoxicity against human HeLa cells assessed as dead cells at 32 uM measured after 24 hrs by PI staining based analysis; assay type: functional, cell-based
[20] = tested on: Cell membrane; test: Induction of cytoplasmic membrane permeabilization in Staphylococcus aureus assessed as increase in fluorescence intensity at 16 uM incubated for […] by CLSM analysis
[21] = tested on: Staphylococcus aureus; test: Antibacterial activity against Staphylococcus aureus assessed as change in surface zeta potential at 16 uM incubated for 20 mins; assay type: functional, organism-based
[22] = tested on: Cell membrane; test: Induction of cytoplasmic membrane permeabilization in Staphylococcus aureus assessed as increase in fluorescence intensity at 16 uM incubated for […] by SYTO 9 staining based analysis
[23] = Hemolytic activity in sheep red blood cells assessed as hemolysis; assay type: toxicity, cell-based, Ovis aries, Erythrocyte
[24] = tested on: Staphylococcus aureus; test: Antibacterial activity against Staphylococcus aureus assessed as increase in fluorescence intensity incubated for 20 mins; assay type: functional, organism-based
[25] = tested on: Staphylococcus aureus; test: Drug resistance, ratio of MIC for Staphylococcus aureus after 20 passages to MIC for Staphylococcus aureus after initial exposure; assay type: functional
[26] = tested on: Staphylococcus aureus; test: Bactericidal activity against methicillin-resistant Staphylococcus aureus assessed as bacterial viability at 4 uM pretreated with compound for 60 mins followed by white light irradiation for 30 mins by plate counting method; assay type: functional; details: time 90 min, 1.5 h
[27] = tested on: Staphylococcus aureus; test: Bactericidal activity against Staphylococcus aureus assessed as reduction in bacterial colony count measured at 2 hrs; assay type: functional, organism-based
[28] = tested on: Staphylococcus aureus; test: Antibiofilm activity in Staphylococcus aureus assessed as inhibition of biofilm formation incubated for 48 hrs in presence of white light irradiation; assay type: functional, organism-based; details: dose <= 32.0 µM
[29] = tested on: Staphylococcus aureus; test: Induction of ROS accumulation in Staphylococcus aureus assessed as fold increase in fluorescence intensity at 1 uM by DCFH-DA staining based analysis; assay type: functional
[30] = tested on: Staphylococcus aureus; test: Antipersister-activity against Staphylococcus aureus assessed as reduction in bacterial colony count preincubated with 100 times of MIC of rifampicin for 24 hrs followed by compound addition and measured after 8 hrs by drop plate counting method; assay type: functional, organism-based
[31] = tested on: Staphylococcus aureus; test: Antibiofilm activity in Staphylococcus aureus assessed as inhibition of biofilm formation incubated for 48 hrs by SYTO 9 staining based CLSM analysis; assay type: functional, organism-based
[32] = tested on: Cell membrane; test: Induction of cell membrane damage in Staphylococcus aureus at 20 uM incubated for 60 mins by TEM analysis; assay type: subcellular
[33] = tested on: Staphylococcus aureus; test: Antibacterial activity against methicillin resistant Staphylococcus aureus infected in Kunming mouse model of skin wound infection assessed as effect on wound healing rate at 5 mg/kg administered for 7 days in presence of white light irradiation; assay type: functional, organism-based; details: time 7.0 day
[34] = tested on: Staphylococcus aureus; test: Antibiofilm activity in Staphylococcus aureus assessed as inhibition of biofilm formation at 32 uM incubated for 48 hrs in presence of white light irradiation; assay type: functional; details: light or radiation study
[35] = tested on: RAW264.7; test: Cytotoxicity against mouse RAW264.7 cells at 32 uM incubated for 24 hrs by CCK-8 assay; assay type: toxicity, cell-based; details: raw264.7, 24 h
[36] = tested on: Staphylococcus aureus; test: Antibiofilm activity in Staphylococcus aureus assessed as inhibition of biofilm formation incubated for 48 hrs in presence of white light irradiation by SYTO 9 staining based CLSM analysis; assay type: functional, organism-based
[37] = tested on: Staphylococcus aureus; test: Antibacterial activity against methicillin resistant Staphylococcus aureus infected in Kunming mouse model of skin wound infection assessed as effect on wound healing rate at 5 mg/kg administered for 7 days; assay type: functional, organism-based; details: time 7.0 day
[38] = tested on: Staphylococcus aureus; test: Bactericidal activity against Staphylococcus aureus assessed as bacterial viability at 4 uM pretreated with compound for 60 mins followed by white light irradiation for 30 mins by plate counting method; assay type: functional; details: time 90 min, 1.5 h
[39] = tested on: Staphylococcus aureus; test: Induction of ROS accumulation in Staphylococcus aureus assessed as increase in singlet oxygen level by measuring reduction in HPF absorption peak at 10 uM irradiated with 650 nm 50 mW/cm2 light for 5 mins; assay type: functional, organism-based
[40] = tested on: Staphylococcus aureus; test: Bactericidal activity against Staphylococcus aureus assessed as bacterial viability at 4 uM by plate counting method relative to control; assay type: functional
[41] = tested on: Staphylococcus aureus; test: Antibacterial activity against Staphylococcus aureus at 0.5 times MIC measured after 20 passages; assay type: functional, organism-based
[42] = tested on: Staphylococcus aureus; test: Induction of ROS accumulation in Staphylococcus aureus assessed as increase in singlet oxygen level by measuring reduction in ABDA absorption peak at 10 uM irradiated with 650 nm 50 mW/cm2 light for 5 mins; assay type: functional, organism-based
[43] = tested on: Staphylococcus aureus; test: Antibiofilm activity in Staphylococcus aureus assessed as inhibition of biofilm formation at 8 uM incubated for 48 hrs; assay type: functional, organism-based

CCCC[N+](C)(C)CCCOc1ccc(/C=C/c2ccccc2)cc1.[Br-]
Activity [1]: Active
Activity [2]: Active
Activity [3]: Active
Activity [4]: inactive
Activity [5]: Active
Activity [6]: inactive
Activity [7]: Active
Activity [8]: 55%
Activity [9]: Active

CCCCCCCCCC[N+](C)(C)CCCOc1ccc(/C=C/c2ccc(N(c3ccccc3)c3ccccc3)cc2)cc1.[Br-]
Activity [1]: Active
Activity [2]: Active
Activity [3]: Active
Activity [10]: inactive
Activity [4]: inactive
Activity [5]: Active
Activity [6]: inactive
Activity [11]: Active
Activity [12]: Active
Activity [13]: 52%

CCCCCCCCCC[N+](C)(C)CCCOc1ccc(/C=C/c2ccccc2)cc1.[Br-]
Activity [1]: Active
Activity [2]: Active
Activity [3]: Active
Activity [14]: Active
Activity [5]: Active
Activity [8]: 0.1%
Activity [9]: Active
Activity [15]: Dose-dependent-effect
Activity [16]: Dose-dependent-effect

CCCCCCCC[N+](C)(C)CCCOc1ccc(/C=C/c2ccccc2)cc1.[Br-]
Activity [1]: Active
Activity [17]: inactive
Activity [2]: Active
Activity [3]: Active
Activity [14]: Active
Activity [18]: inactive
Activity [5]: Active
Activity [19]: Active
Activity [8]: 4%
Activity [9]: Active
Activity [15]: Dose-dependent-effect
Activity [16]: Dose-dependent-effect

CCCC[N+](C)(C)CCCOc1ccc(/C=C/c2ccc(N(c3ccccc3)c3ccccc3)cc2)cc1.[Br-]
Activity [1]: Active
Activity [2]: Active
Activity [3]: Active
Activity [10]: inactive
Activity [14]: Active
Activity [5]: Active
Activity [7]: Active
Activity [20]: Active
Activity [12]: Active
Activity [13]: 2%
Activity [21]: Active
Activity [15]: Dose-dependent-effect
Activity [22]: Active
Activity [16]: Dose-dependent-effect

C[N+](C)(C)CCCOc1ccc(/C=C/c2ccccc2)cc1.[Br-]
Activity [1]: Active
Activity [2]: Active
Activity [3]: Active
Activity [4]: inactive
Activity [5]: Active
Activity [6]: inactive
Activity [7]: Active
Activity [8]: 60%
Activity [9]: Active

CCCCCCCC[N+](C)(C)CCCOc1ccc(/C=C/c2ccc(N(c3ccccc3)c3ccccc3)cc2)cc1.[Br-]
Activity [1]: Active
Activity [17]: inactive
Activity [2]: Active
Activity [3]: Active
Activity [10]: inactive
Activity [18]: inactive
Activity [4]: inactive
Activity [5]: Active
Activity [6]: inactive
Activity [11]: Active
Activity [19]: Active
Activity [12]: Active
HC50 [23]: 75 µM
Activity [13]: 28%

C[N+](C)(C)CCCOc1ccc(/C=C/c2ccc(N(c3ccccc3)c3ccccc3)cc2)cc1.[Br-]
Activity [24]: Active
Ratio [25]: 64
Activity [1]: Active
Activity [26]: ~100%
Activity [27]: Active
Activity [28]: Dose-dependent-effect
fold change (FC) [29]: 100
Activity [30]: Active
Activity [31]: Active
Activity [2]: Active
Activity [3]: Active
Activity [32]: Active
Activity [10]: inactive
Activity [14]: Active
Activity [33]: Active
inhibition at 32 µM [34]: 100%
Activity [5]: Active
Activity [35]: Non-toxic
Activity [36]: Active
Activity [37]: Active
Activity [38]: 0.5%
Activity [39]: Active
Activity [7]: Active
Activity [40]: 11%
Activity [20]: Active
Activity [41]: Active
Activity [12]: Active
HC50 [23]: > 900 µM
Activity [13]: 3%
Activity [42]: inactive
Activity [21]: Active
Activity [15]: Dose-dependent-effect
Activity [22]: Active
Activity [16]: Dose-dependent-effect
Activity [43]: Active
